Measurements from US10780074B2, “Compounds and uses thereof” (Sunovion Pharmaceuticals Inc., priority 2017, dated 2020).
Where a name gives a salt, the structure may show the parent alone.

System: behaviors of compound-treated mice
Experiment: Neuropharmacological Assay (SmartCube)
Assay type: in vivo
Conditions: for minimal effective dose: Mus musculus, ip, 0.25 h, dose having 50% or more total activity in SmartCube, i.p., read-out: MED (minimal effective dose); for AD: ADHD (probability that activity matches class) / AG: analgesic (probability that activity matches class) / AX: anxiolytic (probability that activity matches class) / CE: cognitive enhancer (probability that activity matches class) / DP: anti-depressant (probability that activity matches class) / MS: mood stabilizer (probability that activity matches class) / PS: anti-psychotic (probability that activity matches class) / SD: sedative hypnotic (probability that activity matches class) / UN: uncharacterized CNS activity (probability that activity matches class): i.p. 15 min before behavioral test, most efficacious dose(s) of 3 doses
Outline: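 Mice dosed i.p. 15 min before testing, with compound in N-methyl-2-pyrrolidone/PEG/propylene glycol, were video-recorded and algorithmically compared with reference-drug behavioral signatures. This gave class-match probabilities (antidepressant, anxiolytic, etc.) at the most efficacious of 3 doses. MED was defined as the dose with ≥50% total activity, usually tested across 0.3–30 mpk.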

In the case of `NC[C@@H]1OCCc2c(-c3cccnc3)cccc21` [Compound 15, (R)-(5-(Pyridin-3-yl)isochroman-1-yl)methanamine hydrochloride], the minimal effective dose is reported as 10 to 30 mg/kg, the “AD: ADHD (probability that activity matches class)” value (from here on “AD: ADHD”) is reported as “++ (5% ≤ ++ <25%)” and the “AG: analgesic (probability that activity matches class)” value (“AG: analgesic” for short) is reported as “++ (5% ≤ ++ <25%)”. For the same compound, the “AX: anxiolytic (probability that activity matches class)” value (from here on “AX: anxiolytic”) was “++ (5% ≤ ++ <25%)”, the “CE: cognitive enhancer (probability that activity matches class)” value (shortened to “CE: cognitive enhancer”) was “+ (LOQ ≤ + <5%)” and the “DP: anti-depressant (probability that activity matches class)” value (“DP: anti-depressant” below) was “+++ (25% ≤ +++ <50%)”. For the same compound, the “MS: mood stabilizer (probability that activity matches class)” value (shortened to “MS: mood stabilizer”) was “++ (5% ≤ ++ <25%)”, the “PS: anti-psychotic (probability that activity matches class)” value (“PS: anti-psychotic” for short) was “++ (5% ≤ ++ <25%)” and the “SD: sedative hypnotic (probability that activity matches class)” value (shortened to “SD: sedative hypnotic”) was “+ (LOQ ≤ + <5%)”. The “UN: uncharacterized CNS activity (probability that activity matches class)” value (shortened to “UN: uncharacterized CNS activity”) was “+ (LOQ ≤ + <5%)”.
With `NC[C@H]1OCCc2c(-c3cccnc3)cccc21` [Compound 16, (S)-(5-(Pyridin-3-yl)isochroman-1-yl)methanamine hydrochloride] the minimal effective dose was ≤ 3 mg/kg, the “AD: ADHD” value was “+ (LOQ ≤ + <5%)” and the “AG: analgesic” value was “+ (LOQ ≤ + <5%)”. For the same compound, the “AX: anxiolytic” value was “++ (5% ≤ ++ <25%)”, the “CE: cognitive enhancer” value was “++ (5% ≤ ++ <25%)” and the “DP: anti-depressant” value was “++++ (50% ≤ ++++)”. For the same compound, the “MS: mood stabilizer” value was “+ (LOQ ≤ + <5%)”, the “PS: anti-psychotic” value was “+ (LOQ ≤ + <5%)” and the “SD: sedative hypnotic” value was “+ (LOQ ≤ + <5%)”. The “UN: uncharacterized CNS activity” value was “+ (LOQ ≤ + <5%)”.
`CNC[C@@H]1OCCc2c(-c3ccncc3)cccc21` [Compound 17, (R)—N-Methyl(5-(pyridin-4-yl)isochroman-1-yl)methanamine dihydrochloride salt] was tested, and the minimal effective dose was ≤ 3 mg/kg, the “AD: ADHD” value was “++ (5% ≤ ++ <25%)” and the “AG: analgesic” value was “+ (LOQ ≤ + <5%)”. For the same compound, the “AX: anxiolytic” value was “+ (LOQ ≤ + <5%)”, the “CE: cognitive enhancer” value was “+ (LOQ ≤ + <5%)” and the “DP: anti-depressant” value was “++++ (50% ≤ ++++)”. The “MS: mood stabilizer” value was “+ (LOQ ≤ + <5%)”, the “PS: anti-psychotic” value was “+ (LOQ ≤ + <5%)” and the “SD: sedative hypnotic” value was “++ (5% ≤ ++ <25%)”. The “UN: uncharacterized CNS activity” value was “++ (5% ≤ ++ <25%)”.
With `CNC[C@H]1OCCc2c(-c3ccncc3)cccc21` [Compound 18, (S)—N-Methyl(5-(pyridin-4-yl)isochroman-1-yl)methanamine dihydrochloride salt] the minimal effective dose was 10 to 30 mg/kg, the “AD: ADHD” value was “+ (LOQ ≤ + <5%)” and the “AG: analgesic” value was “+ (LOQ ≤ + <5%)”. For the same compound, the “AX: anxiolytic” value was “+ (LOQ ≤ + <5%)”, the “CE: cognitive enhancer” value was “+ (LOQ ≤ + <5%)” and the “DP: anti-depressant” value was “++++ (50% ≤ ++++)”. The “MS: mood stabilizer” value was “+ (LOQ ≤ + <5%)”, the “PS: anti-psychotic” value was “+ (LOQ ≤ + <5%)” and the “SD: sedative hypnotic” value was “+ (LOQ ≤ + <5%)”. For the same compound, the “UN: uncharacterized CNS activity” value was “+ (LOQ ≤ + <5%)”.
`NC[C@@H]1OCCc2c(-c3ccncc3)cccc21` [Compound 19, (R)-(5-(Pyridin-4-yl)isochroman-1-yl)methanamine hydrochloride salt] was tested, and the minimal effective dose was > 30 mg/kg, the “AD: ADHD” value was “+ (LOQ ≤ + <5%)” and the “AG: analgesic” value was “++ (5% ≤ ++ <25%)”. For the same compound, the “AX: anxiolytic” value was “++ (5% ≤ ++ <25%)”, the “CE: cognitive enhancer” value was “++ (5% ≤ ++ <25%)” and the “DP: anti-depressant” value was “++ (5% ≤ ++ <25%)”. For the same compound, the “MS: mood stabilizer” value was “+ (LOQ ≤ + <5%)”, the “PS: anti-psychotic” value was “+ (LOQ ≤ + <5%)” and the “SD: sedative hypnotic” value was “+ (LOQ ≤ + <5%)”. For the same compound, the “UN: uncharacterized CNS activity” value was “+ (LOQ ≤ + <5%)”.
For `NC[C@H]1OCCc2c(-c3ccncc3)cccc21` [Compound 20, (S)-(5-(Pyridin-4-yl)isochroman-1-yl)methanamine hydrochloride salt], the minimal effective dose was ≤ 3 mg/kg, the “AD: ADHD” value was “++ (5% ≤ ++ <25%)” and the “AG: analgesic” value was “++ (5% ≤ ++ <25%)”. The “AX: anxiolytic” value was “++ (5% ≤ ++ <25%)”, the “CE: cognitive enhancer” value was “+ (LOQ ≤ + <5%)” and the “DP: anti-depressant” value was “++++ (50% ≤ ++++)”. For the same compound, the “MS: mood stabilizer” value was “+ (LOQ ≤ + <5%)”, the “PS: anti-psychotic” value was “+ (LOQ ≤ + <5%)” and the “SD: sedative hypnotic” value was “+ (LOQ ≤ + <5%)”. The “UN: uncharacterized CNS activity” value was “++++ (50% ≤ ++++)”.
For `CNC[C@@H]1OCCc2cc(-c3ncccn3)ccc21` [Compound 21, (R)—N-Methyl-1-(6-(pyrimidin-2-yl)isochroman-1-yl)methanamine hydrochloride salt], the minimal effective dose was 10 to 30 mg/kg, the “AD: ADHD” value was “+ (LOQ ≤ + <5%)” and the “AG: analgesic” value was “++ (5% ≤ ++ <25%)”. The “AX: anxiolytic” value was “++ (5% ≤ ++ <25%)”, the “CE: cognitive enhancer” value was “++ (5% ≤ ++ <25%)” and the “DP: anti-depressant” value was “++ (5% ≤ ++ <25%)”. For the same compound, the “MS: mood stabilizer” value was “+ (LOQ ≤ + <5%)”, the “PS: anti-psychotic” value was “+ (LOQ ≤ + <5%)” and the “SD: sedative hypnotic” value was “+ (LOQ ≤ + <5%)”. The “UN: uncharacterized CNS activity” value was “+ (LOQ ≤ + <5%)”.
`CNC[C@H]1OCCc2cc(-c3ncccn3)ccc21` [Compound 22, (S)—N-Methyl-1-(6-(pyrimidin-2-yl)isochroman-1-yl)methanamine hydrochloride salt] was tested, and the minimal effective dose was 10 to 30 mg/kg, the “AD: ADHD” value was “+ (LOQ ≤ + <5%)” and the “AG: analgesic” value was “++ (5% ≤ ++ <25%)”. The “AX: anxiolytic” value was “++ (5% ≤ ++ <25%)”, the “CE: cognitive enhancer” value was “++ (5% ≤ ++ <25%)” and the “DP: anti-depressant” value was “++ (5% ≤ ++ <25%)”. For the same compound, the “MS: mood stabilizer” value was “+ (LOQ ≤ + <5%)”, the “PS: anti-psychotic” value was “+ (LOQ ≤ + <5%)” and the “SD: sedative hypnotic” value was “+ (LOQ ≤ + <5%)”. For the same compound, the “UN: uncharacterized CNS activity” value was “+++ (25% ≤ +++ <50%)”.
For `CNC[C@H]1OCCc2c(-c3ncccn3)cccc21` [Compound 23, (S)—N-Methyl-1-(5-(pyrimidin-2-yl)isochroman-1-yl)methanamine hydrochloride salt], the minimal effective dose was 10 to 30 mg/kg, the “AD: ADHD” value was “++ (5% ≤ ++ <25%)” and the “AG: analgesic” value was “++ (5% ≤ ++ <25%)”. For the same compound, the “AX: anxiolytic” value was “++ (5% ≤ ++ <25%)”, the “CE: cognitive enhancer” value was “+ (LOQ ≤ + <5%)” and the “DP: anti-depressant” value was “++++ (50% ≤ ++++)”. For the same compound, the “MS: mood stabilizer” value was “+ (LOQ ≤ + <5%)”, the “PS: anti-psychotic” value was “+ (LOQ ≤ + <5%)” and the “SD: sedative hypnotic” value was “+ (LOQ ≤ + <5%)”. For the same compound, the “UN: uncharacterized CNS activity” value was “+ (LOQ ≤ + <5%)”.
With `CNC[C@@H]1OCCc2c(-c3ncccn3)cccc21` [Compound 24, (R)—N-Methyl-1-(5-(pyrimidin-2-yl)isochroman-1-yl)methanamine hydrochloride] the minimal effective dose was > 30 mg/kg, the “AD: ADHD” value was “+ (LOQ ≤ + <5%)” and the “AG: analgesic” value was “+ (LOQ ≤ + <5%)”. The “AX: anxiolytic” value was “++ (5% ≤ ++ <25%)”, the “CE: cognitive enhancer” value was “+ (LOQ ≤ + <5%)” and the “DP: anti-depressant” value was “+ (LOQ ≤ + <5%)”. The “MS: mood stabilizer” value was “+ (LOQ ≤ + <5%)”, the “PS: anti-psychotic” value was “+ (LOQ ≤ + <5%)” and the “SD: sedative hypnotic” value was “+ (LOQ ≤ + <5%)”. The “UN: uncharacterized CNS activity” value was “++ (5% ≤ ++ <25%)”.
In the case of `CNC[C@@H]1OCc2c(-c3cccnc3)cccc21` [Compound 33, (R)—N-Methyl-1-(4-(pyridin-3-yl)-1,3-dihydroisobenzofuran-1-yl)methanamine hydrochloride salt], the minimal effective dose is reported as 10 to 30 mg/kg, the “AD: ADHD” value is reported as “+ (LOQ ≤ + <5%)” and the “AG: analgesic” value is reported as “+ (LOQ ≤ + <5%)”. The “AX: anxiolytic” value was “++ (5% ≤ ++ <25%)”, the “CE: cognitive enhancer” value was “+ (LOQ ≤ + <5%)” and the “DP: anti-depressant” value was “++++ (50% ≤ ++++)”. For the same compound, the “MS: mood stabilizer” value was “+ (LOQ ≤ + <5%)”, the “PS: anti-psychotic” value was “+ (LOQ ≤ + <5%)” and the “SD: sedative hypnotic” value was “+ (LOQ ≤ + <5%)”. The “UN: uncharacterized CNS activity” value was “+ (LOQ ≤ + <5%)”.
